According to patent publication US8399378B2, “Use of neonicotinoids in pest control” (Syngenta Crop Protection LLC, priority 1998, dated 2013):

Columns and labels:
Type in all cases: in vivo
[1] = test system: Frankliniella occidentalis; assay: Cotton seedling spray test, action against Frankliniella occidentalis; settings: 20° C, 3 and 6 days; for control (percentage reduction in population, % action): spray 400 ppm; for control level: plot (b) conventional cotton seedlings, 400 ppm compound
Protocol: (§1) Cotton seedlings expressing the δ-endotoxin CryIIIa on a plot (a) and conventional cotton seedlings on a plot (b) are infected with Frankliniella occidentalis and subsequently sprayed with a spray mixture comprising 400 ppm thiamethoxam. Immediately afterwards, plot (b) is treated with an emulsion spray mixture comprising 400 ppm of the δ-endotoxin CryIIIa. The seedlings of plot (a) and (b) are then incubated at 20° C. The test is evaluated after 3 and 6 days.
(§2) The percentage reduction in population (% action) is determined by comparing the number of dead pests on the plants of plot (a) with that on the plants of plot (b).
as §1, with “CryIa(c)” for “CryIIIa”, “CryIa(c).” for “CryIIIa.”

Nephotettix cincticeps = assay: Rice plant spray test, action against Nephotettix cincticeps; settings: 20° C, 21 days; for control (percentage reduction in population, % action): spray 400 ppm, 2nd and 3rd stages; for control level: plot (b) conventional rice plants, 400 ppm compound
Protocol: (§3) Rice plants on a plot (a) expressing the δ-endotoxin CryIA(b) and conventional rice plants on a plot (b) are sprayed with a spray mixture comprising 400 ppm thiamethoxam. Immediately afterwards, plot (b) is treated with an emulsion spray mixture comprising 400 ppm of the δ-endotoxin CryIA(b). After the spray coating has dried on, the plants are infected with Nephotettix cincticeps of the 2nd and 3rd stages. The seedlings of plot (a) and (b) are then incubated at 20° C. The test is evaluated after 21 days.
as §2
as §3, with “CryIA(c)” for “CryIA(b)”, “CryIA(c).” for “CryIA(b).”

Heliothis virescens [2] = assay: Spray test on young cotton plants, action against Heliothis virescens larvae; settings: non-transgenic cotton treated with compound and conventional CryIIIA-toxin, each 100, 50, 10, 5, 1 ppm
Spodoptera littoralis = assay: Spray test on young cotton plants, action against Spodoptera littoralis larvae
Aphis gossypii = assay: Cotton seedling spray test, action against Aphis gossypii; settings: 20° C, 3 and 6 days; for control (percentage reduction in population, % action): spray 400 ppm; for control level: plot (b) conventional cotton seedlings, 400 ppm compound, then 400 ppm δ-endotoxin CryIIIa
Protocol: as §1, with “Cotton seedlings on a plot (a) expressing the” for “Cotton seedlings expressing the”, “infected with Aphis gossypi and subsequently” for “infected with Frankliniella occidentalis and subsequently”
as §2
as §1, with “the δ-endotoxin CryIA(c) on a” for “the δ-endotoxin CryIIIa on a”, “infected with Aphis gossypii and subsequently” for “infected with Frankliniella occidentalis and subsequently”

Heliothis virescens [3] = assay: Spray test on young cotton plants, action against Heliothis virescens larvae; settings: spray 100, 50, 10, 5, 1 ppm, evaluation 3 to 10 days
Description: (§4) Young transgenic cotton plants which express the δ-endotoxin CryIIIA are sprayed with an aqueous emulsion spray mixture comprising 100, 50, 10, 5, 1 ppm of imidacloprid respectively. After the spray coating has dried on, the cotton plants are populated with 10 adult Anthonomus grandis, 10 Spodoptera littoralis larvae or 10 Heliothis virescens larvae respectively and introduced into a plastic container. Evaluation takes place 3 to 10 days later.
as §4, with “thiamethoxam” for “imidacloprid”
as §4, with “Ti-435” for “imidacloprid”, “later. […]” for “later.”

[4] = plot (a) cotton seedlings expressing δ-endotoxin CryIIIa
[5] = plot (a) cotton seedlings expressing δ-endotoxin CryIa(c)

Compound: CN1COCN(Cc2cnc(Cl)s2)/C1=N\[N+](=O)[O-] [thiamethoxam, 5-(2-Chlorthiazol-5-ylmethyl)-3-methyl-4-nitroimino-perhydro-1,3,5-oxadiazin]
- control (percentage reduction in population, % action) [1, 4]: Improved control
- control (percentage reduction in population, % action) [1, 5]: Improved control
- control level ([1]; then 400 ppm δ-endotoxin CryIIIa): ≤ 60%
- control level ([1]; then 400 ppm δ-endotoxin CryIa(c)): ≤ 60%
- control (percentage reduction in population, % action) (Nephotettix cincticeps; plot (a) rice plants expressing δ-endotoxin CryIA(b)): Improved control
- control (percentage reduction in population, % action) (Nephotettix cincticeps; plot (a) rice plants expressing δ-endotoxin CryIA(c)): Improved control
- control level (Nephotettix cincticeps; then 400 ppm δ-endotoxin CryIA(b)): ≤ 60%
- control level (Nephotettix cincticeps; then 400 ppm δ-endotoxin CryIA(c)): ≤ 60%
- control of the tested insects (percentage reduction in population or feeding damage, % action) (Heliothis virescens [2]; comparison arm for CryIIIA cotton): insufficient
- control of the tested insects (percentage reduction in population or feeding damage, % action) (Heliothis virescens [2]; comparison arm for CryIa(c) cotton): insufficient
- control of the tested insects (percentage reduction in population or feeding damage, % action) (Spodoptera littoralis; non-transgenic cotton treated with compound and conventional CryIIIA-toxin, each 100, 50, 10, 5, 1 ppm, comparison arm for CryIIIA cotton): insufficient
- control of the tested insects (percentage reduction in population or feeding damage, % action) (Spodoptera littoralis; transgenic cotton expressing δ-endotoxin CryIIIA, spray 100, 50, 10, 5, 1 ppm, evaluation 3 to 10 days, compared with non-transgenic plant): superior
- control (percentage reduction in population, % action) (Aphis gossypii; [4]): Improved control
- control (percentage reduction in population, % action) (Aphis gossypii; [5]): Improved control
- control level (Aphis gossypii): ≤ 60%
- control level (Aphis gossypii; comparison arm for CryIA(c) cotton): ≤ 60%
- control of the tested insects (percentage reduction in population or feeding damage, % action) (Heliothis virescens [3]; transgenic cotton expressing δ-endotoxin CryIIIA, compared with non-transgenic plant): superior
- control of the tested insects (percentage reduction in population or feeding damage, % action) (Heliothis virescens [3]; transgenic cotton expressing δ-endotoxin CryIa(c)): superior
